Laboratory results from patent US20190382396A1, “SALTS OF BICYCLO[1.1.1]PENTANE INHIBITORS OF DUAL LEUCINE ZIPPER (DLK) KINASE FOR THE TREATMENT OF DISEASE” (Board of Regents, The University of Texas System, priority 2018, published 2019).
Like-named read-outs stand apart in the source and are kept apart here.

Columns and labels:
Type in all cases: physicochemical
[1] = Solubility in physiologically relevant solutions (SGF, FaSSIF, FeSSIF); details: 25±0.5° C.; for solubility at 24 h: 25 °C, thermodynamic from solid
Experimental: Solubility of the free base 1 and the selected salts 8, 9, 10, and 11 in physiologically relevant solutions were examined. For each material, aliquots were added to 2 ml vials containing 500 uL of either SGF, FaSSIF, or FeSSIF, which were then sealed. The mixtures were kept shaking by thermomixer at 700 rpm, 25±0.5° C. for 24 h to facilitate the dissolution and then centrifuged by 96-well plates at 3000 rpm for 2 min. The filter liquors were diluted with diluents (ACN/water, 50/50) and analyzed by HPLC.

[2] = Stability (50° C., 40° C./75% RH, light; 1 week); details: for XRPD change? / purity: bulk, 1 week; for initial purity: initial (before storage)
Experimental: The stability of the free base 1 and the selected salts 8, 9, 10, and 11 was evaluated. For each material, aliquots were set up at each of conditions (50° C., 40° C./75% RH, light) at given time points (initial and 1 week). PXRD diffractograms of the hydrogen fumarate salt 11 is shown in FIG. 17, with trace (a) showing the initial salt, trace (b) showing the salt after light treatment, trace (c) showing the salt after storage at 40° C. and 75% relative humidity for 1 week, and (d) showing the salt after storage at 50° C. for 1 week.

[3] = Dynamic vapor sorption (DVS), hygroscopicity; details: for Maximum sorption / Hygroscopicity (0-40% RH) / Hygroscopicity (0-90% RH) / Change in mass, Desorption / Change in mass, Sorption / Change in mass, Hysteresis: DVS; for Maximum sorption / Hygroscopicity (0-40% RH) / Hygroscopicity (0-90% RH): 25° C.; for Hygroscopicity; form change: form change after DVS
Experimental: Dynamic vapor sorption (“DVS”) was performed at 25° C., using approx 10-15 mg of sample and N2 gas at a flow rate of 200 mL/min, dm/dt=0.01% min, minimum dm/dt stability duration of 10 min, max equilibration time of 180 min, drying at 0% RH for 120 min, scanning from 0% RH to 90% RH to 0% RH with a step size of 10% RH.
Total cycling time varied, but in all cases was about 200-250 min.

[4] = simulated gastric fluid, SGF, read-out: Solubility SGF Conc
[5] = FaSSIF, read-out: Solubility FaSSIF Conc
[6] = FeSSIF, read-out: Solubility FeSSIF Conc

## CC(C)c1nc(-c2cnc(N)c(OC(F)(F)F)c2)cn1C12CC(N3CCOCC3)(C1)C2.O=C(O)/C=C\C(=O)O [Example 9, 5-(2-isopropyl-1-(3-morpholinobicyclo[1.1.1]pentan-1-yl)-1H-imidazol-4-yl)-3-(trifluoromethoxy)pyridin-2-amine hydrogen maleate]
[1]; [4]
  solubility at 24 h: 13400 µg/mL
[1]; [5]
  solubility at 24 h: 113 µg/mL
[1]; [6]
  solubility at 24 h: 565 µg/mL
[1]; FaSSIF
  FaSSIF pH after 24 h: 5.65
[1]; FeSSIF
  FeSSIF pH after 24 h: 4.90
[1]; SGF
  SGF pH after 24 h: 3.26
[2]; 40° C., 75% RH
  XRPD change?: no
  purity: 99.87%
[2]; 50° C.
  XRPD change?: no
  purity: 99.89%
[2]
  initial purity: 99.83%
[2]; light
  XRPD change?: no
  purity: 99.79%
[3]
  Maximum sorption: 0.27%
  Hygroscopicity (0-40% RH): 0.07%
  Hygroscopicity (0-90% RH): 0.27%
  Hygroscopicity; form change: no change
[3]; Target % P/P0 0.0
  Change in mass, Desorption: −0.0030%
  Change in mass, Sorption: 0.0000%
[3]; Target % P/P0 10.0
  Change in mass, Desorption: 0.0196%
  Change in mass, Hysteresis: 0.0015%
  Change in mass, Sorption: 0.0181%
[3]; Target % P/P0 20.0
  Change in mass, Desorption: 0.0354%
  Change in mass, Hysteresis: 0.0038%
  Change in mass, Sorption: 0.0317%
[3]; Target % P/P0 30.0
  Change in mass, Desorption: 0.0573%
  Change in mass, Hysteresis: 0.0151%
  Change in mass, Sorption: 0.0422%
[3]; Target % P/P0 40.0
  Change in mass, Desorption: 0.0747%
  Change in mass, Hysteresis: 0.0090%
  Change in mass, Sorption: 0.0656%
[3]; Target % P/P0 50.0
  Change in mass, Desorption: 0.0950%
  Change in mass, Hysteresis: 0.0136%
  Change in mass, Sorption: 0.0814%
[3]; Target % P/P0 60.0
  Change in mass, Desorption: 0.1199%
  Change in mass, Hysteresis: 0.0158%
  Change in mass, Sorption: 0.1041%
[3]; Target % P/P0 70.0
  Change in mass, Desorption: 0.1516%
  Change in mass, Hysteresis: 0.0189%
  Change in mass, Sorption: 0.1327%
[3]; Target % P/P0 80.0
  Change in mass, Desorption: 0.1938%
  Change in mass, Hysteresis: 0.0151%
  Change in mass, Sorption: 0.1787%
[3]; Target % P/P0 90.0
  Change in mass, Desorption: 0.2655%
  Change in mass, Sorption: 0.2655%

## CC(C)c1nc(-c2cnc(N)c(OC(F)(F)F)c2)cn1C12CC(N3CCOCC3)(C1)C2.O=C(O)CCC(=O)O [Example 10, 5-(2-isopropyl-1-(3-morpholinobicyclo[1.1.1]pentan-1-yl)-1H-imidazol-4-yl)-3-(trifluoromethoxy)pyridin-2-amine hydrogen succinate]
[1]; [4]
  solubility at 24 h: 7080 µg/mL
[1]; [5]
  solubility at 24 h: 72.2 µg/mL
[1]; [6]
  solubility at 24 h: 642 µg/mL
[1]; FaSSIF
  FaSSIF pH after 24 h: 5.92
[1]; FeSSIF
  FeSSIF pH after 24 h: 4.88
[1]; SGF
  SGF pH after 24 h: 3.71
[2]; 40° C., 75% RH
  XRPD change?: no
  purity: 100%
[2]; 50° C.
  XRPD change?: no
  purity: 100%
[2]
  initial purity: 99.74%
[2]; light
  XRPD change?: no (2)
  purity: 99.74%
[3]
  Maximum sorption: 0.30%
  Hygroscopicity (0-40% RH): 0.05%
  Hygroscopicity (0-90% RH): 0.3%
  Hygroscopicity; form change: no change
[3]; Target % P/P0 0.0
  Change in mass, Desorption: 0.0514%
  Change in mass, Sorption: 0.0000%
[3]; Target % P/P0 10.0
  Change in mass, Desorption: 0.0647%
  Change in mass, Hysteresis: 0.0496%
  Change in mass, Sorption: 0.0151%
[3]; Target % P/P0 20.0
  Change in mass, Desorption: 0.0727%
  Change in mass, Hysteresis: 0.0487%
  Change in mass, Sorption: 0.0239%
[3]; Target % P/P0 30.0
  Change in mass, Desorption: 0.0930%
  Change in mass, Hysteresis: 0.0611%
  Change in mass, Sorption: 0.0319%
[3]; Target % P/P0 40.0
  Change in mass, Desorption: 0.1081%
  Change in mass, Hysteresis: 0.0549%
  Change in mass, Sorption: 0.0532%
[3]; Target % P/P0 50.0
  Change in mass, Desorption: 0.1267%
  Change in mass, Hysteresis: 0.0541%
  Change in mass, Sorption: 0.0727%
[3]; Target % P/P0 60.0
  Change in mass, Desorption: 0.1489%
  Change in mass, Hysteresis: 0.0514%
  Change in mass, Sorption: 0.0975%
[3]; Target % P/P0 70.0
  Change in mass, Desorption: 0.1790%
  Change in mass, Hysteresis: 0.0523%
  Change in mass, Sorption: 0.1267%
[3]; Target % P/P0 80.0
  Change in mass, Desorption: 0.2233%
  Change in mass, Hysteresis: 0.0292%
  Change in mass, Sorption: 0.1941%
[3]; Target % P/P0 90.0
  Change in mass, Desorption: 0.3013%
  Change in mass, Sorption: 0.3013%
